The assay addresses T1, γ-secretase (Homo sapiens, UniProt P49768).
T1 construct: uses a HEK293 membrane fraction as a source of γ-secretase; endogenous in cells; host or cells: HEK293 (microsomal membrane fraction, solubilised in 0.25% CHAPSO)
The experiment in a line: in vitro γ-secretase assay (HEK293 membrane fraction, recombinant APP substrate, Abeta ELISA). Particulars: γ-secretase inhibition. The class given is biochemical. From the text: Description of γ-Secretase Assay
The activity of test compounds can be evaluated in assays which measure the proteolytic cleavage of suitable substrates by γ-secretase activity. These can be cellular assays where e.g., a substrate of the γ-secretase is fused in its cytoplasmic domain to a transcription factor. Cells are transfected with this fusion gene and a reporter gene, e.g., firefly luciferase, which expression is enhanced by the transcription factor. Cleavage of the fused substrate by γ-secretase will lead to expression of the reporter gene which can be monitored in appropriate assays. The γ-secretase activity can also be determined in cell-free in vitro asays where e.g., a cell lysate containing the γ-secretase complex is incubated with a suitable APP-derived substrate which is cleaved to the Abeta peptides. The amount of produced peptides can be determined with specific ELISA assays. Cell lines of neuronal origin secrete Abeta peptides which can be measured with the specific ELISA assay. Treatment with compounds which inhibit γ-secretase leads to a reduction of secreted Abeta thus providing a measure of inhibition.
The in vitro assay of γ-secretase activity uses a HEK293 membrane fraction as a source of γ-secretase and a recombinant APP substrate. Latter consist of the C-terminal 100 amino acids of human APP fused to a 6× Histidin tail for purification which is expressed in E. coli in a regulatable expression vector, e.g. pEt15. This recombinant protein corresponds to the truncated APP fragment which results after […] of the extracellular domain and which constitutes the γ-secretase substrate. […] Hek293 cells are mechanically disrupted and the microsomal fraction is isolated by differential centrifugation.
In general terms: In an ELISA, binding on a coated surface is turned into a signal by an enzyme label.

This passage reports IC50 results from US7253158B2, “Sulfonamides” (Hoffmann-La Roche Inc., priority 2004, dated 2007).

A word on the IC50: it is the midpoint of a concentration-inhibition curve.

`COc1ccc(CN(C2CCCCNC2=O)S(=O)(=O)c2ccc(Br)cc2)cc1F` (racemic) [Example 28, rac-4-Bromo-N-(3-fluoro-4-methoxy-benzyl)-N-(2-oxo-azepan-3-yl)-benzenesulfonamide]: the concentration for half-maximal inhibition (IC50) (table head prints none) is 150 nM.
On to `CC(C)C1CCNC(=O)C(N(Cc2ccc(C(=O)NC3CC3)cc2)S(=O)(=O)c2ccc(Cl)cc2)C1` (racemic) [Example 43, rac-4-{[(4-Chloro-benzenesulfonyl)-(5-isopropyl-2-oxo-azepan-3-yl)-amino]-methyl}-N-cyclopropyl-benzamide], for which, under “table head prints none”, the IC50 came out at 30 nM.
On to `COC(=O)c1ccc(CN(C2CCCCNC2=O)S(=O)(=O)c2ccc(Cl)cc2)cc1` (racemic) [Example 57, rac-4-{[(4-Chloro-benzenesulfonyl)-(2-oxo-azepan-3-yl)-amino]-methyl}-benzoic acid methyl ester], for which the IC50 (table head prints none) stood at 130 nM.
Still for that read-out and setting: the same measure for `O=C(NC1CC1)c1ccc(CN(C2CCCCNC2=O)S(=O)(=O)c2ccc(Cl)cc2)cc1` (racemic) [Example 75, rac-4-{[(4-Chloro-benzenesulfonyl)-(2-oxo-azepan-3-yl)-amino]-methyl}-N-cyclopropyl-benzamide]: 190 nM; for `COC(=O)c1ccc(CN(C2CC(C)(C)CCNC2=O)S(=O)(=O)c2ccc(Cl)cc2)cc1` (racemic) [Example 138, Rac-4-{[(4-Chloro-benzenesulfonyl)-(5,5-dimethyl-2-oxo-azepan-3-yl)-amino]-methyl}-benzoic acid methyl ester]: 10 nM; for `CC1(C)CCNC(=O)C(N(Cc2ccc(C(=O)NCCF)cc2)S(=O)(=O)c2ccc(Cl)cc2)C1` (racemic) [Example 140, rac-4-{[(4-Chloro-benzenesulfonyl)-(5,5-dimethyl-2-oxo-azepan-3-yl)-amino]-methyl}-N-(2-fluoro-ethyl)-benzamide]: 20 nM.
The same measure, in the same setting: with `CC1(C)CCNC(=O)C(N(Cc2ccc(C(=O)NCC(F)(F)F)cc2)S(=O)(=O)c2ccc(Cl)cc2)C1` (racemic) [Example 141, rac-4-{[(4-Chloro-benzenesulfonyl)-(5,5-dimethyl-2-oxo-azepan-3-yl)-amino]-methyl}-N-(2,2,2-trifluoro-ethyl)-benzamide] the figure was 20 nM; with `CC1(C)CCNC(=O)C(N(Cc2ccc(C(=O)N[C@@H]3C[C@@H]3F)cc2)S(=O)(=O)c2ccc(Cl)cc2)C1` (mixture of isomers) [Example 142, rac-4-{[(4-Chloro-benzenesulfonyl)-(5,5-dimethyl-2-oxo-azepan-3-yl)-amino]-methyl}-N-((1R,2S)-2-fluoro-cyclopropyl)-benzamide], 20 nM; with `CC1(C)CCNC(=O)C(N(Cc2ccc(C(=O)NCCO)cc2)S(=O)(=O)c2ccc(Cl)cc2)C1` (racemic) [Example 143, rac-4-{[(4-Chloro-benzenesulfonyl)-(5,5-dimethyl-2-oxo-azepan-3-yl)-amino]-methyl}-N-(2-hydroxy-ethyl)-benzamide], 40 nM.
The same measure, in the same setting: with `CC1(C)CCNC(=O)C(N(Cc2ccc(C(=O)NC3CCCC3)cc2)S(=O)(=O)c2ccc(Cl)cc2)C1` (racemic) [Example 144, rac-4-{[(4-Chloro-benzenesulfonyl)-(5,5-dimethyl-2-oxo-azepan-3-yl)-amino]-methyl}-N-cyclopentyl-benzamide] the figure was 50 nM; with `CNC(=O)c1ccc(CN(C2CC(C)(C)CCNC2=O)S(=O)(=O)c2ccc(Cl)cc2)cc1` (racemic) [Example 145, rac-4-{[(4-Chloro-benzenesulfonyl)-(5,5-dimethyl-2-oxo-azepan-3-yl)-amino]-methyl}-N-methyl-benzamide], 10 nM; with `CC1(C)CCNC(=O)C(N(Cc2ccc(C(N)=O)cc2)S(=O)(=O)c2ccc(Cl)cc2)C1` (racemic) [Example 146, rac-4-{[(4-Chloro-benzenesulfonyl)-(5,5-dimethyl-2-oxo-azepan-3-yl)-amino]-methyl}-benzamide], 20 nM.
As for `CC1(C)CCNC(=O)C(N(Cc2ccc(C(=O)NCc3ccccc3)cc2)S(=O)(=O)c2ccc(Cl)cc2)C1` (racemic) [Example 147, rac-N-Benzyl-4-{[(4-chloro-benzenesulfonyl)-(5,5-dimethyl-2-oxo-azepan-3-yl)-amino]-methyl}-benzamide], the IC50 (table head prints none) was determined as 20 nM.
Same read-out and setting: the same measure for `COC(=O)CNC(=O)c1ccc(CN(C2CC(C)(C)CCNC2=O)S(=O)(=O)c2ccc(Cl)cc2)cc1` (racemic) [Example 148, rac-(4-{[(4-Chloro-benzenesulfonyl)-(5,5-dimethyl-2-oxo-azepan-3-yl)-amino]-methyl}-benzoylamino)-acetic acid methyl ester]: 20 nM; for `CC1(C)CCNC(=O)C(N(Cc2ccc(C(=O)NCCN3CCOCC3)cc2)S(=O)(=O)c2ccc(Cl)cc2)C1` (racemic) [Example 149, rac-4-{[(4-Chloro-benzenesulfonyl)-(5,5-dimethyl-2-oxo-azepan-3-yl)-amino]-methyl}-N-(2-morpholin-4-yl-ethyl)-benzamide]: 150 nM; for `CC1(C)CCNC(=O)C(N(Cc2ccc(-c3nn[nH]n3)cc2)S(=O)(=O)c2ccc(Cl)cc2)C1` (racemic) [Example 150, rac-4-Chloro-N-(5,5-dimethyl-2-oxo-azepan-3-yl)-N-[4-(2H-tetrazol-5-yl)-benzyl]-benzenesulfonamide]: 100 nM.
Same read-out and setting: with `CC(=O)Nc1ccc(CN(C2CC(C)(C)CCNC2=O)S(=O)(=O)c2ccc(Cl)cc2)cc1` (racemic) [Example 152, rac-N-(4-{[(4-Chloro-benzenesulfonyl)-(5,5-dimethyl-2-oxo-azepan-3-yl)-amino]-methyl}-phenyl)-acetamide] the figure was 20 nM.
With `CCOC(=O)CC(=O)Nc1ccc(CN(C2CCCCNC2=O)S(=O)(=O)c2ccc(Cl)cc2)cc1` (racemic) [Example 165, Rac-N-(4-{[(4-Chloro-benzenesulfonyl)-(2-oxo-azepan-3-yl)-amino]-methyl}-phenyl)-malonamic acid ethyl ester], the concentration for half-maximal inhibition (IC50) (table head prints none) turned out to be 270 nM.
Same read-out and setting: with `O=C1NCCCCC1N(Cc1ccc(C(F)F)cc1)S(=O)(=O)c1ccc(Cl)cc1` (racemic) [Example 172, Rac-4-Chloro-N-(4-difluoromethyl-benzyl)-N-(2-oxo-azepan-3-yl)-benzenesulfonamide] the figure was 230 nM.
Regarding `COC(=O)c1ccc(CN(C2CCCCNC2=O)S(=O)(=O)c2ccc(Cl)cc2)c(F)c1` (racemic) [Example 203, rac-4-{[(4-Chloro-benzenesulfonyl)-(2-oxo-azepan-3-yl)-amino]-methyl}-3-fluoro-benzoic acid methyl ester], the IC50 is 190 nM.
On to `NC(=O)c1ccc(CN([C@@H]2CCCCNC2=O)S(=O)(=O)c2ccc(Cl)cc2)cc1` [Example 2, 4-{[(4-Chloro-benzenesulfonyl)-((R)-2-oxo-azepan-3-yl)-amino]-methyl}-benzamide], for which, under “table head prints none”, the IC50 worked out at 150 nM.
On the same count and under the same terms, with `CC(C)C1CCNC(=O)C(N(Cc2ccc(C(N)=O)cc2)S(=O)(=O)c2ccc(Cl)cc2)C1` (centres unmarked) [Example 4, 4-{[(4-Chloro-benzenesulfonyl)-(5-isopropyl-2-oxo-azepan-3-yl)-amino]-methyl}-benzamide] the figure was 260 nM; with `COC(=O)c1ccc(CN([C@@H]2CCCCNC2=O)S(=O)(=O)c2ccc(Cl)cc2)c(F)c1` [Example 34, 4-{[(4-Chloro-benzenesulfonyl)-((R)-2-oxo-azepan-3-yl)-amino]-methyl}-3-fluoro-benzoic acid methyl ester], 140 nM; with `CCOC(=O)c1ccc(CN([C@@H]2CCCCNC2=O)S(=O)(=O)c2ccc(Cl)cc2)cc1` [Example 35, 4-{[(4-Chloro-benzenesulfonyl)-((R)-2-oxo-azepan-3-yl)-amino]-methyl}-benzoic acid ethyl ester], 90 nM.
Take `COC(=O)c1ccc(C(C)N([C@@H]2CCCCNC2=O)S(=O)(=O)c2ccc(Cl)cc2)cc1` (stereo partly drawn) [Example 41, 4-{1-[(4-Chloro-benzenesulfonyl)-((R)-2-oxo-azepan-3-yl)-amino]-ethyl}-benzoic acid methyl ester]: the IC50 (table head prints none) stood at 200 nM.
`O=C1NCCCC[C@H]1N(Cc1ccc(-c2ncn[nH]2)cc1F)S(=O)(=O)c1ccc(Cl)cc1` [Example 56, 4-Chloro-N-[2-fluoro-4-(2H-[1,2,4]triazol-3-yl)-benzyl]-N-((R)-2-oxo-azepan-3-yl)-benzenesulfonamide]: where the note is “table head prints none”, the IC50 worked out at 80 nM.
Same read-out and setting: with `COc1ccc(CN([C@@H]2CCCCNC2=O)S(=O)(=O)c2ccc(Cl)cc2)c(F)c1` [Example 68, 4-Chloro-N-(2-fluoro-4-methoxy-benzyl)-N-((R)-2-oxo-azepan-3-yl)-benzenesulfonamide] the figure was 120 nM; with `O=C(NC1CC1)c1ccc(CN([C@@H]2CCCCNC2=O)S(=O)(=O)c2ccc(C(F)(F)F)cc2)cc1` [Example 106, N-Cyclopropyl-4-{[((R)-2-oxo-azepan-3-yl)-(4-trifluoromethyl-benzenesulfonyl)-amino]-methyl}-benzamide], 260 nM; with `O=C(NC1CC1)c1ccc(CN([C@@H]2CCCCNC2=O)S(=O)(=O)c2ccc(Br)cc2)cc1` [Example 107, N-Cyclopropyl-4-{[((R)-2-oxo-azepan-3-yl)-(4-bromo-benzenesulfonyl)-amino]-methyl}-benzamide], 290 nM.
